In article PMC5238392, “Origin of anti-tumor activity of the cysteine-containing GO peptides and further optimization of their cytotoxic properties” (Scientific Reports, 2017):

Legend:
Format in all cases: cell-based, human
HT-1080 cells [1] = experiment: FITC Annexin V / propidium iodide apoptosis assay, HT-1080; details: 10 μM
Description: Already 2 h after administration of 10 μM dose, the system reaches a steady state with 18% of healthy cells, 17% of early apoptotic cells, and 58% of late apoptotic cells. It remains in this state for the entire period of observations, 24 h.
(§1) Figure 3 GO-203-induced apoptosis in HT-1080 and ZR-75-1 cells as assessed by FITC Annexin V (AnV) and propidium iodide (PI) double staining. (A–D) Flow cytometry histograms for the cells incubated for 4 h with 10 μM of GO-203 and the untreated (control) cells. (E–H) Apoptotic fractions in the GO-203-treated and untreated (control) cells as a function of incubation time and GO-203 concentration; color coding is explained in the legend. TEXT PRINTED IN THE PICTURE: (B) GO-203: HT-1080: IV.(1.90 %); HT-1080: III.(52.62 %); HT-1080: I.(19.45 %); HT-1080: II.(26.04 %) | (D) GO-203: ZR-75-1: IV.(8.19 %); ZR-75-1: III.(8.65 %); ZR-75-1: I.(37.84 %); ZR-75-1: II.(45.32 %)
(§2) The adherent cells were rinsed with PBS, harvested using trypsin-EDTA solution and suspended in the growth medium. To analyze cell cycle phase distribution, 200 μg/ml of saponin (Fluka, USA), 250 μg/ml RNase A, and 50 μg/ml of propidium iodide (both Sigma-Aldrich, USA) were added to each sample tube, thus obtaining DNA stain buffer. After 1 h incubation at room temperature, the samples were analyzed by flow cytometry. To detect apoptosis by flow cytometry, CellEvent Caspase-3/7 Green Flow Cytometry Assay Kit (Thermo Fisher Scientific, USA) and Annexin-V FITC conjugate (BD Biosciences, USA) in combination with propidium iodide have been employed following the manufacturer’s protocols.
(§3) Cell fluorescence was measured using CytoFLEX (Beckman Coulter, USA) flow cytometer equipped with 3 lasers (405, 488 and 633 nm). Cells were gated on FSC/SSC to remove debris. Mean fluorescence intensity from 10,000 cells was acquired.

ZR-75-1 cells = experiment: FITC Annexin V / propidium iodide apoptosis assay, ZR-75-1
Description: as §1
Similarly fast apoptotic process is observed in ZR-75-1, although this cell line is less susceptible to the cytotoxic effect of GO-203. 4 h after administration of 10 μM dose, 39% of the cells remain healthy, 43% undergo early apoptosis, and 9% are in the late apoptosis stage. This proportion remains unchanged after 24 h. The fact that GO-203-induced apoptosis occurs rapidly in both sensitive and relatively insensitive cell lines is relevant in the context of its cytotoxic mechanism (discussed later in the text).
Also illustrated in Fig. 3G,H is the dose-dependent response of the treated cells. […] It is possible that apoptotic ZR-75-1 cells in quadrant II undergo disintegration instead of moving to quadrant III, Fig. 3D. Importantly, the Annexin V data are consistent with the results of the MTS assay which registers limited damage to the ZR-75-1 cells, see Fig. 2.
as §2, §3

HT-1080 cells [2] = experiment: Rhodamine 123 mitochondrial membrane potential, HT-1080
From the text: In broad terms, apoptosis is classified into two fundamental modes: mitochondrial pathway and death receptor pathway. In the former mechanism, apoptotic signals lead to a loss of mitochondrial membrane potential, termination of mitochondrial ATP synthesis, overproduction of reactive oxygen species (ROS) and their release into cytosol along with a number of pro-apoptotic proteins that are normally confined to the intermembrane space of the mitochondria. To determine whether this mechanism is relevant for GO-203-induced cell death, we have analyzed the time variation of mitochondrial membrane potential and cellular level of ROS over the time interval of 2 h following the addition of the peptide. Toward this goal, the cells were preloaded with Rhodamine 123 or carboxy-H2DCFDA fluorescent dyes, then washed, suspended in the growth medium, and treated with GO-203. The fluorescence was measured concurrently with the side angle light scatter.
Only at 90–100 min we observe a moderate decrease of the fluorescence signal from the treated cells, which indicates the drop in mitochondrial membrane potential. As discussed above, the onset of apoptosis in HT-1080 occurs considerably earlier than that. […] Therefore we assume that mitochondrial membrane permeabilization (MMP) occurs relatively late in the game and is unlikely to be a key element of the GO-203-induced apoptosis.
Finally, the same experimental scheme as described above for H2DCFDA/DCFDA measurements was also used with Rhodamine 123. […] The same observation has been made for ZR-75-1.
The cells were seeded into 35-mm Nunc culture dishes (Thermo Scientific, USA) at 1.2 × 10^5 cells per dish and allowed to attach for 24 h. […] After that GO-203 was added directly to the suspension and cell fluorescence was measured by flow cytometry at multiple time points during the following 2 hours. […] Cell fluorescence was then immediately measured by flow cytometry. […]

[3] = 4 h, representative plot Fig. 3B
[4] = 10 μM, 4 h, representative plot Fig. 3D
[5] = 10 μM, 4 h after administration
[6] = suspended HT-1080, one-time 5 μM dose

[R]9CQCRRKN [GO-203, in clinical trials]
early apoptotic cells (Annexin V/PI) (HT-1080 cells [1]; 2 h after administration): 17%
late apoptotic cells (Annexin V/PI) (HT-1080 cells [1]; 2 h after administration): 58%
healthy cells (Annexin V/PI) (HT-1080 cells [1]; 2 h after administration (steady state up to 24 h)): 18%
quadrant I fraction (Annexin V/PI dot plot) (HT-1080 cells [1]; [3]): 19.45%
quadrant II fraction (Annexin V/PI dot plot) (HT-1080 cells [1]; [3]): 26.04%
quadrant III fraction (Annexin V/PI dot plot) (HT-1080 cells [1]; [3]): 52.62%
quadrant IV fraction (Annexin V/PI dot plot) (HT-1080 cells [1]; [3]): 1.90%
quadrant I fraction (Annexin V/PI dot plot) (ZR-75-1 cells; [4]): 37.84%
quadrant II fraction (Annexin V/PI dot plot) (ZR-75-1 cells; [4]): 45.32%
quadrant III fraction (Annexin V/PI dot plot) (ZR-75-1 cells; [4]): 8.65%
quadrant IV fraction (Annexin V/PI dot plot) (ZR-75-1 cells; [4]): 8.19%
early apoptosis (Annexin V/PI) (ZR-75-1 cells; [5]): 43%
late apoptosis stage (Annexin V/PI) (ZR-75-1 cells; [5]): 9%
healthy cells (Annexin V/PI) (ZR-75-1 cells; 10 μM, 4 h after administration (unchanged after 24 h)): 39%
viable cells at highest dose (Annexin V/PI) (ZR-75-1 cells; 20 μM): a large proportion of the cells remains viable
Mitochondrial membrane potential (Rhodamine 123) (HT-1080 cells [2]; HT-1080, 30 min after application, same scheme as H2DCFDA/DCFDA measurements): fully maintained
Time for which mitochondrial retention of Rhodamine 123 remains the same as control (HT-1080 cells [2]; [6]): at least 70 min
Time of moderate decrease of Rhodamine 123 fluorescence (drop in mitochondrial membrane potential) (HT-1080 cells [2]; [6]): 90 to 100 min
